In US8987247B2, “Monoacylglycerol lipase inhibitors for the treatment of metabolic diseases and related disorders” (Janssen Pharmaceutica NV, priority 2011, dated 2015):
Marks after values point to notes of the source that are not given here.

Tests used:
Sprague-Dawley rats = test: Effect on Food Intake after Food Deprivation in Rats; assay type: in vivo, rat; details: 30 mg/kg p.o., rats fasted 18 h, N=6/group
Procedure: In rats, food deprivation or restriction is a standard method for inducing increased food intake. In other words, depriving the rats of food and then subsequently presenting them with food results, predictably in over-eating (also referred to as rebound hyperphagia). To study the effect of compounds of formula (I) on feeding behavior, rats were treated after food deprivation.
Adult, male Sprague-Dawley rats were single-housed on a 12 h light/dark cycle and received food and water ad libitum, except where otherwise indicated. Rats were allowed to acclimate to the housing room for at least 1 week prior to testing. One day prior to treatment, each rat was transferred to a new cage that was free of bedding and contained a wire grid floor, and all food was removed. Rats were fasted for 18 h before treatment. Rats were divided into two groups (N=6/group) and received either a compound of formula (I) at 30 mg/kg, p.o. or vehicle. At dosing, all rats received a pre-measured amount of standard rodent chow. After 30 min, the food was re-weighed to determine the amount consumed.

beagle dogs = test: 5-Day Repeat Dose with Weight Monitoring in Dogs; assay type: in vivo, dog; parameters: key to Clinical Observations: Stained urogenital area (no. of dogs) / Body Temperature Change / Body Weight Change: —: No noteworthy findings; details: for Body Weight Change: 5 days, Day-1 to Day 5; for Body Temperature Change: 4 hours postdose on Day 0
Procedure: Male and female beagle dogs, 15 months of age, were individually housed and maintained on a 12-hourlight/dark cycle. Dogs were given 300 g/day of Advanced Protocol™ Non-Certified High Density Canine Diet 5L18 (pMfID Nutrition International). Food was provided 0.5 to 2 hours post-dose, except on days of toxicokinetic blood sampling when food was provided after the 4 hour time point. Canned food was supplemented beginning on day 3. A compound of formula (I) was administered orally via gavage using a stomach tube once daily (initiating on Day 0) to male and female dogs (1 each per dose) for 5 consecutive days at 0, 5, 15 and 45 mg/kg/day. Dogs were weighed on Day-1 and Day 5 prior to necropsy. Food consumption was determined 3 days predose and then daily. Body temperature was measured at 0 (predose), 4 and 24 hours on Days 0 and 4. Clinical observations were recorded predose and 2 hours postdose daily. Dogs were fasted overnight prior to blood collection. Blood was collected from all dogs predose on Day-8 and prior to dosing on Day 4 from the jugular vein. Blood was collected into tubes containing tripotassium EDTA for hematology and no additive for serum chemistry determinations. At necropsy, the thoracic and abdominal cavities were examined.

rats, strain CD(SD)IGS = test: 5-Day Repeat Dose with Weight Monitoring in Rats; assay type: in vivo, rat; details: for Mean body weight Change: Day −1 to Day 4
Procedure: Male and Female rats, strain CD(SD)IGS (Charles River Laboratories International, Inc., MA) of 8 weeks of age were individually housed and maintained on a 12-hr light/dark cycle. Rats were fed ad libitum with a standard diet (Rodent Diet 5001, PMI Nutrition International, Indiana). […] Rats were weighed predose and on days 1 and 4. Clinical observations were recorded prior to dosing, at 2 hours post-dose each day. Rats were fasted overnight on Day 4 and blood was collected on Day 5 from the retro-orbital sinus following anesthesia with a 70/30% carbon dioxide/oxygen mixture. Blood was collected into tubes containing tripotassium EDTA for hematology panel and no additive for serum chemistry determinations. Rats were euthanized by CO2 inhalation and thoracic and abdominal cavities were examined and weights of liver determined.

Question: Which results are given for `O=C(c1ccc2c(ccn2-c2ccc(F)cc2)c1)N1CC(N2CCN(C(=O)c3nccs3)CC2)C1` [Cpd 1, 1-(4-Fluorophenyl)-5-({3-[4-(1,3-thiazol-2-ylcarbonyl)piperazin-1-yl]azetidin-1-yl}carbonyl)-1H-indole]?
Answer: Food Intake (g of food over 30 min) (Sprague-Dawley rats): 1.60 ± 1.02 g; Clinical Observations: Emesis (no. of dogs) (beagle dogs; dog F:1, 5 mg/kg daily oral): 1; Clinical Observations: Feces, absent (no. of dogs) (beagle dogs; dog F:1, 5 mg/kg daily oral): 1; Clinical Observations: Feces, decrease (no. of dogs) (beagle dogs; dog F:1, 5 mg/kg daily oral): 1; Clinical Observations: Stained urogenital area (no. of dogs) (beagle dogs; dog F:1, 5 mg/kg daily oral): —; Food Consumption (beagle dogs; dog F:1, 5 mg/kg daily oral): ↓; Body Weight Change (beagle dogs; dog F:1, 5 mg/kg daily oral): −0.90; Body Temperature Change (beagle dogs; dog F:1, 5 mg/kg daily oral): −3.2; Clinical Observations: Emesis (no. of dogs) (beagle dogs; dog F:1, 15 mg/kg daily oral): 1; Clinical Observations: Feces, absent (no. of dogs) (beagle dogs; dog F:1, 15 mg/kg daily oral): 1; Clinical Observations: Feces, decrease (no. of dogs) (beagle dogs; dog F:1, 15 mg/kg daily oral): 1; Clinical Observations: Stained urogenital area (no. of dogs) (beagle dogs; dog F:1, 15 mg/kg daily oral): 1; Food Consumption (beagle dogs; dog F:1, 15 mg/kg daily oral): ↓; Body Weight Change (beagle dogs; dog F:1, 15 mg/kg daily oral): —; Body Temperature Change (beagle dogs; dog F:1, 15 mg/kg daily oral): −1.6; Clinical Observations: Emesis (no. of dogs) (beagle dogs; dog F:1, 45 mg/kg daily oral): 1; Clinical Observations: Feces, absent (no. of dogs) (beagle dogs; dog F:1, 45 mg/kg daily oral): 1; Clinical Observations: Feces, decrease (no. of dogs) (beagle dogs; dog F:1, 45 mg/kg daily oral): 1; Clinical Observations: Stained urogenital area (no. of dogs) (beagle dogs; dog F:1, 45 mg/kg daily oral): 1; Food Consumption (beagle dogs; dog F:1, 45 mg/kg daily oral): ↓; Body Weight Change (beagle dogs; dog F:1, 45 mg/kg daily oral): −1.28; Body Temperature Change (beagle dogs; dog F:1, 45 mg/kg daily oral): —; Clinical Observations: Emesis (no. of dogs) (beagle dogs; dog M:1, 5 mg/kg daily oral): 1; Clinical Observations: Feces, absent (no. of dogs) (beagle dogs; dog M:1, 5 mg/kg daily oral): 1; Clinical Observations: Feces, decrease (no. of dogs) (beagle dogs; dog M:1, 5 mg/kg daily oral): 1; Clinical Observations: Stained urogenital area (no. of dogs) (beagle dogs; dog M:1, 5 mg/kg daily oral): —; Food Consumption (beagle dogs; dog M:1, 5 mg/kg daily oral): ↓; Body Weight Change (beagle dogs; dog M:1, 5 mg/kg daily oral): −1.10; Body Temperature Change (beagle dogs; dog M:1, 5 mg/kg daily oral): −3.4; Clinical Observations: Emesis (no. of dogs) (beagle dogs; dog M:1, 15 mg/kg daily oral): 1; Clinical Observations: Feces, absent (no. of dogs) (beagle dogs; dog M:1, 15 mg/kg daily oral): 1; Clinical Observations: Feces, decrease (no. of dogs) (beagle dogs; dog M:1, 15 mg/kg daily oral): 1; Clinical Observations: Stained urogenital area (no. of dogs) (beagle dogs; dog M:1, 15 mg/kg daily oral): 1; Food Consumption (beagle dogs; dog M:1, 15 mg/kg daily oral): ↓; Body Weight Change (beagle dogs; dog M:1, 15 mg/kg daily oral): −0.74; Body Temperature Change (beagle dogs; dog M:1, 15 mg/kg daily oral): —; Clinical Observations: Emesis (no. of dogs) (beagle dogs; dog M:1, 45 mg/kg daily oral): 1; Clinical Observations: Feces, absent (no. of dogs) (beagle dogs; dog M:1, 45 mg/kg daily oral): 1; Clinical Observations: Feces, decrease (no. of dogs) (beagle dogs; dog M:1, 45 mg/kg daily oral): 1; Clinical Observations: Stained urogenital area (no. of dogs) (beagle dogs; dog M:1, 45 mg/kg daily oral): 1; Food Consumption (beagle dogs; dog M:1, 45 mg/kg daily oral): ↓; Body Weight Change (beagle dogs; dog M:1, 45 mg/kg daily oral): −0.78; Body Temperature Change (beagle dogs; dog M:1, 45 mg/kg daily oral): −1.9; Mean body weight (rats, strain CD(SD)IGS; female rats, 15 mg/kg/day oral, Day 4): 226.98 +/− 10.29; Mean body weight (rats, strain CD(SD)IGS; female rats, 15 mg/kg/day oral, Day −1 (predose)): 203.86 +/− 6.13; Mean body weight (rats, strain CD(SD)IGS; female rats, 50 mg/kg/day oral, Day −1 (predose)): 199.16 +/− 5.66; Mean body weight Change (rats, strain CD(SD)IGS; female rats, 50 mg/kg/day oral): 8.54 +/− 2.32; Mean body weight (rats, strain CD(SD)IGS; male rats, 15 mg/kg/day oral, Day 4): 301.94 +/− 7.52; Mean body weight (rats, strain CD(SD)IGS; male rats, 15 mg/kg/day oral, Day −1 (predose)): 273.34 +/− 4.80; Mean body weight Change (rats, strain CD(SD)IGS; male rats, 15 mg/kg/day oral): 28.60 +/− 2.90; Mean body weight (rats, strain CD(SD)IGS; male rats, 50 mg/kg/day oral, Day 4): 278.78 +/− 6.95; Mean body weight (rats, strain CD(SD)IGS; male rats, 50 mg/kg/day oral, Day −1 (predose)): 272.66 +/− 6.92; Mean body weight Change (rats, strain CD(SD)IGS; male rats, 50 mg/kg/day oral): 6.10 +/− 3.56*
